In PMC8048639 (2021):
Values belong to the molecule of their own block, whether it stands above or below them.

What was measured:
[1] = system: poly(rA) (RNA, polymer) A; assay: fluorimetric titration, Scatchard fit; conditions: Na+ (sodium cacodylate buffer, I=0.05 M), pH 7.0, n fixed, per base
[2] = system: poly(rA)-poly(rU) (RNA, polymer) A/U; assay: UV thermal melting at 260 nm; conditions: Na+ (sodium cacodylate buffer, I=0.05 M); pH 7.0; r=[compound]/[polynucleotide]=0.1; per base
[3] = system: poly(dGdC)2 (DNA, polymer) GC; assay: fluorimetric titration, Scatchard fit; conditions: Na+ (sodium cacodylate buffer, I=0.05 M), pH 7.0, n fixed, per base
[4] = system: poly(rU) (RNA, polymer) U; assay: fluorimetric titration, Scatchard fit; conditions: Na+ (sodium cacodylate buffer, I=0.05 M), pH 7.0, n fixed, per base
[5] = system: poly(rG) (RNA, polymer) G; assay: fluorimetric titration, Scatchard fit; conditions: Na+ (sodium cacodylate buffer, I=0.05 M), pH 7.0, n fixed, per base
[6] = system: poly(dAdT)2 (DNA, polymer) AT; assay: fluorimetric titration, Scatchard fit; conditions: Na+ (sodium cacodylate buffer, I=0.05 M), pH 7.0, n fixed, per base
[7] = system: poly(dAdT)2 (DNA, polymer) AT; assay: UV thermal melting at 260 nm; conditions: Na+ (sodium cacodylate buffer, I=0.05 M); pH 7.0; r=[compound]/[polynucleotide]=0.1; per base
[8] = system: poly(rA)-poly(rU) (RNA, polymer) A/U; assay: fluorimetric titration, Scatchard fit; conditions: Na+ (sodium cacodylate buffer, I=0.05 M), pH 7.0, per base
[9] = system: poly(dT) (DNA, polymer) T; assay: fluorimetric titration, Scatchard fit; conditions: Na+ (sodium cacodylate buffer, I=0.05 M), pH 7.0, n fixed, per base
[10] = system: poly(dA) (DNA, polymer) A; assay: fluorimetric titration, Scatchard fit; conditions: Na+ (sodium cacodylate buffer, I=0.05 M); pH 7.0; compound 5×10^-8 M; n fixed; per base
[11] = system: poly(rC) (RNA, polymer) C; assay: fluorimetric titration, Scatchard fit; conditions: Na+ (sodium cacodylate buffer, I=0.05 M), pH 7.0, n fixed, per base
[12] = compound 5×10^-8 M, apparent, lowered by competing aggregation
[13] = compound 5×10^-8 M, aggregation at excess dye

log K S [1]: 7.8
ΔT m [2]: 8 ± 0.5 °C
log K S ([3]; compound 1×10^-8 M): 7.9
log K S [4]: 8.8
log K S [5]: 8.7
log K S ([6]; compound 1×10^-8 M, aggregation at excess dye): 7.7
ΔT m [7]: 6 ± 0.5 °C
log K S ([8]; compound 1×10^-8 M, limit only): > 9
log K S [9]: 7.4
Compound: Cc1cc(C#Cc2c3ccccc3c(C#Cc3cc(C)c(B(c4c(C)cc([N+](C)(C)C)cc4C)c4c(C)cc([N+](C)(C)C)cc4C)c(C)c3)c3ccccc23)cc(C)c1B(c1c(C)cc([N+](C)(C)C)cc1C)c1c(C)cc([N+](C)(C)C)cc1C

ΔT m [2]: 7 ± 0.5 °C
log K S [3, 12]: 6.6
log K S ([4]; compound 5×10^-8 M): 7.0
log K S [5, 13]: 7.1
log K S [6, 12]: 5.1
log K S [10]: 7.6
log K S [11, 13]: 7.4
ΔT m [7]: 3 ± 0.5 °C
log K S ([8]; compound 5×10^-8 M, apparent, lowered by competing aggregation, n fixed): 6.0
log K S ([9]; compound 5×10^-8 M): 7.6
Compound: Cc1cc(C#Cc2ccc(-c3ccc(C#Cc4cc(C)c(B(c5c(C)cc([N+](C)(C)C)cc5C)c5c(C)cc([N+](C)(C)C)cc5C)c(C)c4)s3)s2)cc(C)c1B(c1c(C)cc([N+](C)(C)C)cc1C)c1c(C)cc([N+](C)(C)C)cc1C

log K S [1]: 8.4
ΔT m [2]: 9 ± 0.5 °C
log K S [3]: 8.4
log K S [4]: 7.4
log K S [5]: 8.7
log K S ([6]; compound 5×10^-9 M): 7.8
log K S [11]: 7.1
log K S ([8]; n fixed): 8.6
log K S [9]: 8.5
Compound: Cc1cc(C#Cc2ccc(C#Cc3cc(C)c(B(c4c(C)cc([N+](C)(C)C)cc4C)c4c(C)cc([N+](C)(C)C)cc4C)c(C)c3)cc2)cc(C)c1B(c1c(C)cc([N+](C)(C)C)cc1C)c1c(C)cc([N+](C)(C)C)cc1C

log K S ([1]; compound 5×10^-8 M): 7.1
ΔT m [2]: 0 ± 0.5 °C
log K S ([3]; compound 5×10^-8 M): 7.8
log K S ([4]; compound 5×10^-8 M): 7.1
log K S ([5]; compound 5×10^-8 M): 7.3
log K S ([6]; compound 5×10^-8 M): 7.4
log K S ([11]; compound 5×10^-8 M): 7.2
log K S ([8]; compound 5×10^-8 M, n fixed): 7.9
Compound: Cc1cc([N+](C)(C)C)cc(C)c1B(c1c(C)cc([N+](C)(C)C)cc1C)c1c2ccccc2c(B(c2c(C)cc([N+](C)(C)C)cc2C)c2c(C)cc([N+](C)(C)C)cc2C)c2ccccc12
